# Source: US20180042918A1, “RESPIRATORY INFECTION TREATING AGENT” (KYORIN PHARMACEUTICAL CO., LTD., priority 2015, published 2018)
# Marks after values point to notes of the source that are not given here.
# Assays:
# E. coli ATCC25922 [1] = assay: Frequency of development of resistant bacteria; type: cell-based, Escherichia coli; conditions: for FREQUENCY OF DEVELOPMENT OF RESISTANT BACTERIA (AVERAGE OF TWO MEASURED VALUES): about 70 hours
# Protocol: (§1) S. aureus ATCC29213 is Staphylococcus aureus, S. pneumoniae ATCC49619 is Streptococcus pneumoniae, and E. coli ATCC25922 is Escherichia coli. […]
# (§2) The frequency of development of resistant bacteria was calculated by dividing the number of colonies developed on an agar medium having each drug concentration by the number of initially inoculated bacteria.
# S. pneumoniae ATCC49619 = assay: Frequency of development of resistant bacteria; type: cell-based, Streptococcus pneumoniae; conditions: for FREQUENCY OF DEVELOPMENT OF RESISTANT BACTERIA (AVERAGE OF TWO MEASURED VALUES): about 70 hours
# Protocol: as §1, §2
# S. aureus ATCC29213 = assay: Frequency of development of resistant bacteria; type: cell-based, Staphylococcus aureus; conditions: for FREQUENCY OF DEVELOPMENT OF RESISTANT BACTERIA (AVERAGE OF TWO MEASURED VALUES): about 70 hours
# Protocol: as §1, §2
# E. coli ATCC25922 [2] = assay: microbe, parasite or virus in culture; type: cell-based; conditions: Escherichia coli
# [3] = Concentration in tissue (rat, oral administration), radioactivity; type: in vivo; conditions: SD rat, single oral 10.83 mg/kg; for RADIOACTIVITY CONCENTRATION IN TISSUE, LUNG / RADIOACTIVITY CONCENTRATION IN TISSUE, PLASMA: fasting
# Protocol: The compound C (10.83 mg/kg) (solvent: water) was single orally administrated to a SD rat under fasting. 1, 6, and 24 hours after the administration, the lung tissue and the plasma were collected. The lung tissue was dried and treated by a sample oxidizer system (Sample Oxidizer: Model 307, PerkinElmer Inc., glass vial: 20 mL, Wheaton Industries, carbon dioxide absorbent: Carbo-Sorb 8 mL, PerkinElmer Inc., scintillation cocktail: Permafluor 12 mL, PerkinElmer Inc.), and the radioactivity concentration was measured. The plasma was fractionated in a midi-vial (8 mL, PerkinElmer Inc.), 6 mL of scintillation cocktail (Ultima Gold) was added, and the radioactivity concentration was measured. The radioactivity concentration was measured using a liquid scintillation counter (Tri-Carb 2500TR or 2700TR, PerkinElmer Inc.) (average value, n=3).
compound,measurement,setting,value
"O=C(O)c1cn(C2CC2)c2cc(N3CCNCC3)c(F)cc2c1=O [CPFX, ciprofloxacin]",development of resistant bacteria (in words),"E. coli ATCC25922 [1]; E. coli ATCC25922, 4 to 16 × MIC",developed
same,FREQUENCY OF DEVELOPMENT OF RESISTANT BACTERIA (AVERAGE OF TWO MEASURED VALUES),"E. coli ATCC25922 [1]; E. coli ATCC25922, 4 × MIC",1.2 × 10^−8*
same,FREQUENCY OF DEVELOPMENT OF RESISTANT BACTERIA (AVERAGE OF TWO MEASURED VALUES),"E. coli ATCC25922 [1]; E. coli ATCC25922, 8 × MIC",<1.9 × 10^−9
same,FREQUENCY OF DEVELOPMENT OF RESISTANT BACTERIA (AVERAGE OF TWO MEASURED VALUES),"E. coli ATCC25922 [1]; E. coli ATCC25922, 16 × MIC",<1.9 × 10^−9
same,development of resistant bacteria (in words),"S. pneumoniae ATCC49619; S. pneumoniae ATCC49619, 4 to 16 × MIC",developed
same,FREQUENCY OF DEVELOPMENT OF RESISTANT BACTERIA (AVERAGE OF TWO MEASURED VALUES),"S. pneumoniae ATCC49619; S. pneumoniae ATCC49619, 4 × MIC",1.1 × 10^−8*
same,FREQUENCY OF DEVELOPMENT OF RESISTANT BACTERIA (AVERAGE OF TWO MEASURED VALUES),"S. pneumoniae ATCC49619; S. pneumoniae ATCC49619, 8 × MIC",<1.1 × 10^−8
same,FREQUENCY OF DEVELOPMENT OF RESISTANT BACTERIA (AVERAGE OF TWO MEASURED VALUES),"S. pneumoniae ATCC49619; S. pneumoniae ATCC49619, 16 × MIC",<1.1 × 10^−8
same,development of resistant bacteria (in words),"S. aureus ATCC29213; S. aureus ATCC29213, 4 to 16 × MIC",developed
same,FREQUENCY OF DEVELOPMENT OF RESISTANT BACTERIA (AVERAGE OF TWO MEASURED VALUES),"S. aureus ATCC29213; S. aureus ATCC29213, 4 × MIC",6.2 × 10^−9*
same,FREQUENCY OF DEVELOPMENT OF RESISTANT BACTERIA (AVERAGE OF TWO MEASURED VALUES),"S. aureus ATCC29213; S. aureus ATCC29213, 8 × MIC",3.1 × 10^−9*
same,FREQUENCY OF DEVELOPMENT OF RESISTANT BACTERIA (AVERAGE OF TWO MEASURED VALUES),"S. aureus ATCC29213; S. aureus ATCC29213, 16 × MIC",<2.1 × 10^−9
same,MIC,E. coli ATCC25922 [2],8 ng/mL
"COc1c(N2C[C@H](CNC3CC3)[C@H](F)C2)c(F)cc2c(=O)c(C(=O)O)cn(CCF)c12.Cl [Compound C, 7-[(3S,4S)-3-{(cyclopropylamino)methyl}-4-fluoropyrrolidine-1-yl]-6-fluoro-1-(2-fluoroethyl)-8-methoxy-4-oxo-1,4-dihydro[2-^14C1]quinoline-3-carboxylic acid hydrochloride]","RADIOACTIVITY CONCENTRATION IN TISSUE, LUNG",[3]; 1 hr,10.3 μg eq./mL or g
same,"RADIOACTIVITY CONCENTRATION IN TISSUE, LUNG",[3]; 6 hr,2.44 μg eq./mL or g
same,"RADIOACTIVITY CONCENTRATION IN TISSUE, LUNG",[3]; 24 hr,0.0541 μg eq./mL or g
same,"RADIOACTIVITY CONCENTRATION IN TISSUE, PLASMA",[3]; 1 hr,2.79 μg eq./mL or g
same,"RADIOACTIVITY CONCENTRATION IN TISSUE, PLASMA",[3]; 6 hr,0.815 μg eq./mL or g
same,"RADIOACTIVITY CONCENTRATION IN TISSUE, PLASMA",[3]; 24 hr,0.0294 μg eq./mL or g
same,"TISSUE DISTRIBUTION RATIO, LUNG",[3]; 1 hr,3.7
same,"TISSUE DISTRIBUTION RATIO, LUNG",[3]; 6 hr,3.0
same,"TISSUE DISTRIBUTION RATIO, LUNG",[3]; 24 hr,1.9
